pEC50: −log10 of the molar value.
Target: T1, FPRL-1 (Homo sapiens, UniProt P25090)
T1 construct: expressed in transfected cells
T1 sequence (P25090 1-351): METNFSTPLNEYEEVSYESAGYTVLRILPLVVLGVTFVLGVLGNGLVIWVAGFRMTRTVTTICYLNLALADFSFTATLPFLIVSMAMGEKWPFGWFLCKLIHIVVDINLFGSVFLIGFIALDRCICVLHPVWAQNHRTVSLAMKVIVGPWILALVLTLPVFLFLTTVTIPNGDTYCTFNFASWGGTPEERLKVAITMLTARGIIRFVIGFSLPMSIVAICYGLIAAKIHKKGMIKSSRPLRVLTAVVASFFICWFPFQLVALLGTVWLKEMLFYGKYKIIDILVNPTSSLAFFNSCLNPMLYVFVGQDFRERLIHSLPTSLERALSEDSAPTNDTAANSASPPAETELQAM
Assay: compound-induced calcium activity on FLIPR Tetra in CHO-Gα16 cells stably expressing FPRL1
Assay type: cell-based
Settings: for FPRL-1 Ga16-CHO (Rel. eff.): relative efficacy; for pEC50: tested 0.61 to 10,000 nM, read-out: FPRL-1 Ga16-CHO EC50
Description: CHO-Gα16 cells stably expressing FPRL1 were cultured in (F12, 10% FBS, 1% PSA, 400 μg/ml geneticin and 50 μg/ml hygromycin) and HEK-Gqi5 cells stable expressing FPR1 were cultured in (DMEM high glucose, 10% FBS, 1% PSA, 400 μg/ml geneticin and 50 μg/ml hygromycin). In general, the day before the experiment, 18,000 cells/well were plated in a 384-well clear bottom poly-d-lysine coated plate. The following day the screening compound-induced calcium activity was assayed on the FLIPR^Tetra. The drug plates were prepared in 384-well microplates using the EP3 and the MultiPROBE robotic liquid handling systems. Compounds were tested at concentrations ranging from 0.61 to 10,000 nM. Results are expressed as EC50 (nM) and efficacy values.

Row | FPRL-1 Ga16-CHO (Rel. eff.) | pEC50 | SMILES
1 | (0.98) | 8.28 | CCC[C@H](NC(=O)Nc1ccc(Br)cc1F)C(=O)NCC(N)=O [Compound 31, (2S)-N-(2-amino-2-oxoethyl)-2-{[(4-bromo-2-fluorophenyl]carbamoyl}amino)pentanamide]
2 | (0.92) | 8.22 | O=C(Nc1ccc(Br)cc1)N[C@@H](Cc1ccccc1)C(=O)NCCO [Compound 9, (2S)-2-{[(4-bromophenyl)carbamoyl]amino}-N-(2-hydroxyethyl)-3-phenylpropanamide]
3 | (1.03) | 8.19 | CCC[C@H](NC(=O)[C@H](CC(C)C)NC(=O)Nc1ccc(Br)cc1)C(N)=O [Compound 53, (2S)-N-[(2S)-1-amino-1-oxopentan-2-yl]-2-{[(4-bromophenyl)carbamoyl]amino}-4-methylpentanamide]
4 | (1.03) | 7.51 | CCC(CC)(NC(=O)Nc1ccc(Br)cc1)C(=O)NCC(=O)OC(C)(C)C [Compound 57, tert-butyl {[2-{[(4-bromophenyl)carbamoyl]amino}-2-ethylbutanoyl]amino}acetate]
5 | (1.01) | 7.44 | CC[C@H](C)[C@H](NC(=O)Nc1ccc(Br)cc1F)C(=O)NCC(C)=O [Compound 13, (2S,3S)-2-{[(4-bromo-2-fluorophenyl)carbamoyl]amino}-3-methyl-N-(2-oxopropyl)pentanamide]
6 | (0.97) | 8.60 | CCC[C@H](NC(=O)Nc1ccc(Br)cc1)C(=O)NCC(N)=O [Compound 30, (2S)-N-(2-amino-2-oxoethyl)-2-{[(4-bromophenyl)carbamoyl]amino}-pentanamide]
7 | (1.06) | 7.89 | CCC[C@H](NC(=O)[C@H](CC(C)C)NC(=O)Nc1ccc(Br)cc1)C(=O)OC(C)(C)C [Compound 49]
8 | (0.92) | 5.44 | CC(C)C[C@@H](NC(=O)Nc1ccc(Br)cc1)C(=O)NCC(=O)OC(C)(C)C [Compound 66, tert-butyl {[(2R)-2-{[(4-bromophenyl)carbamoyl]amino}-4-methylpentanoyl]amino}acetate]
9 | (1.02) | 6.94 | CC(C)(C)OC(=O)CNC(=O)C(C)(C)NC(=O)Nc1ccc(Br)cc1 [Compound 59, tert-butyl {[2-{[(4-bromophenyl)carbamoyl]amino}-2-methylpropanoyl]amino}acetate]
10 | (1.00) | 8.00 | CC[C@H](C)[C@H](NC(=O)Nc1ccc(Br)cc1F)C(=O)NCC(N)=O [Compound 29, (2S,3S)-N-(2-amino-2-oxoethyl)-2-{[(4-bromo-2-fluorophenyl)carbamoyl]amino}-3-methylpentanamide]
11 | (0.97) | 6.18 | CC(C)C[C@H](NC(=O)Nc1ccc([S+](C)[O-])cc1)C(=O)NCC(=O)OC(C)(C)C (stereo partly drawn) [Compound 75, tert-butyl {[(2S)-4-methyl-2-({[4-(methylsulfinyl)phenyl]carbamoyl}amino)pentanoyl]amino}acetate]
12 | (0.82) | 8.33 | CC(=O)CNC(=O)[C@H](CC(C)C)NC(=O)Nc1ccc(Br)cc1 [Compound 27, (2S)-2-{[(4-bromophenyl)carbamoyl]amino}-4-methyl-N-(2-oxopropyl)pentanamide]
13 | (1.04) | 7.85 | CCC[C@H](NC(=O)Nc1ccc(Br)cc1)C(=O)NCC(=O)OC(C)C [Compound 24, isopropyl {[(2S)-2-{[(4-bromophenyl)carbamoyl]amino}-pentanoyl]amino}acetate]
14 | (0.98) | 7.17 | CC(C)C[C@H](NC(=O)Nc1ccc(Br)cc1)C(=O)N[C@H](C(=O)OC(C)(C)C)C(C)C [Compound 42, tert-butyl(2S)-2-{[(2S)-2-{[(4-bromophenyl)carbamoyl]amino}-4-methylpentanoyl]amino}-3-methylbutanoate]
